The source of these data is patent US11925629B2, “Heterocyclic inhibitors of ERK1 and ERK2 and their use in the treatment of cancer” (Asana Biosciences, LLC, priority 2015, dated 2024).

Structures are written as SMILES. Structures can show the parent of a compound that is named as a salt.

For assay [1], the system named is HT-29 (colorectal carcinoma, B-RafV600E) cells. The assay can be described thus: Cell proliferation (Alamar Blue) assay, HT-29. The class given is cell-based, human. As for the experimental part: (§1) Cell Proliferation (Alamar Blue) Assay
(§2) HT-29 (colorectal carcinoma, B-RafV600E), HCT116 (colorectal carcinoma, K Ras G13D), A375 (melanoma, B-RafV600E) and SK-Mel2 (melanoma, NRAS Q61R) cells (obtained from ATCC, USA) were seeded (5000 cells/well) in 96-well tissue culture plate and incubated at 37° C./5% CO2 for 16-24 hours. The cells were then treated with compounds, at concentrations typically from 0.0005 to 10 uM prepared in 3-fold serial dilutions. The plates were then incubated for 72 h at 37° C./5% CO2 in a moist environment. Then Alamar Blue™ reagent (final concentration 1×) was added to each well and incubated for 1-3 h at 37° C./5% CO2. The plates were read on fluorescence reader at 540 nm excitation and 590 nm emission wavelengths. The IC50 values were subsequently determined using a sigmoidal dose-response curve (variable slope) using GraphPad Prism® 5 software.

Assay [2] has as its system HCT116 (colorectal carcinoma, K Ras G13D) cells. The assay is described as follows: Cell proliferation (Alamar Blue) assay, HCT116. The class given is cell-based, human. As for the experimental part: as §1, §2
Where [3] appears, read: Homo sapiens, HT-29, HT29 cells.
The mark [4] stands for this setting: Homo sapiens, HCT-116, HCT116 cells.

Regarding `Cc1cnc(Nc2ccc3[nH]cc(C4=CCNCC4)c3c2)nc1-n1ccc(C(=O)NC(CO)c2cccc(Cl)c2)c1` (centres unmarked) [Example 209, N-(1-(3-chlorophenyl)-2-hydroxyethyl)-1-(5-methyl-2-((3-(1,2,3,6-tetrahydropyridin-4-yl)-1H-indol-5-yl)amino)pyrimidin-4-yl)-1H-pyrrole-3-carboxamide hydrochloride], the concentration for half-maximal inhibition (IC50) in assay [1] (setting [3]) and in assay [2] (setting [4]) was over 2500 nM each time.
For the compound `CC[C@@H](CO)Nc1ncc(C)c(-n2ccc(C(=O)N[C@@H](CO)c3cccc(Cl)c3)c2)n1` [Example 218, N-((R)-1-(3-chlorophenyl)-2-hydroxyethyl)-1-(2-(((S)-1-hydroxybutan-2-yl)amino)-5-methylpyrimidin-4-yl)-1H-pyrrole-3-carboxamide], the IC50 in assay [1] (setting [3]) and in assay [2] (setting [4]) was over 2500 nM each time.
Take `Cc1cnc(Nc2ccc(F)cc2Cl)cc1-n1ccc(C(=O)NC(CO)c2ccccc2)c1` (centres unmarked) [Example 78, 1-(2-((2-chloro-4-fluorophenyl)amino)-5-methyl-pyridin-4-yl)-N-(2-hydroxy-1-phenylethyl)-1H-pyrrole-3-carboxamide]: the IC50 in assay [1] (setting [3]) and in assay [2] (setting [4]) was over 2500 nM in each case.
On to `Cc1cnc(NC2CCCCC2)nc1-n1cnc(C(=O)NC(CO)c2cccc(Cl)c2)c1` (centres unmarked) [Example 226, N-(1-(3-chlorophenyl)-2-hydroxyethyl)-1-(2-(cyclohexylamino)-5-methylpyrimidin-4-yl)-1H-imidazole-4-carboxamide], for which the IC50 was 250 to 500 nM in assay [1] (setting [3]) and over 2500 nM in assay [2] (setting [4]).
For `O=C(NC(CO)c1ccccc1)c1ccn(-c2ccnc(Nc3ccc(F)cc3Cl)c2)c1` (centres unmarked) [Example 82, 1-(2-((2-chloro-4-fluorophenyl)amino)pyridin-4-yl)-N-(2-hydroxy-1-phenylethyl)-1H-pyrrole-3-carboxamide], in that order: over 2500 nM and over 2500 nM.
Take `Cc1cnc(Nc2ccc(F)cc2Cl)cc1-n1cnc(C(=O)NC(CO)c2ccccc2)c1` (centres unmarked) [Example 85, 1-(2-((2-chloro-4-fluorophenyl)amino)-5-methyl-pyridin-4-yl)-N-(2-hydroxy-1-phenylethyl)-1H-imidazole-4-carboxamide]: the IC50 in assay [1] (setting [3]) and in assay [2] (setting [4]) was over 2500 nM throughout.
On to `Cc1cnc(Nc2ccc3c(c2)OCO3)nc1-n1cc(C(=O)NC(CO)c2cccc(Cl)c2)cn1` (centres unmarked) [Example 41, 1-(2-(benzo[d][1,3]dioxol-5-ylamino)-5-methyl-pyrimidin-4-yl)-N-(1-(3-chloro-phenyl)-2-hydroxy-ethyl)-1H-pyrazole-4-carboxamide], for which the IC50 in assay [1] (setting [3]) and in assay [2] (setting [4]) was over 2500 nM throughout.
For `O=C(Nc1cnn(-c2ccnc(NC3CC3)n2)c1)N[C@H](CO)c1cccc(Cl)c1` [Example 6, (S)-1-(1-(3-chlorophenyl)-2-hydroxyethyl)-3-(1-(2-(cyclo-propyl-amino)pyrimidin-4-yl)-1H-pyrazol-4-yl)urea], the IC50 in assay [1] (setting [3]) and in assay [2] (setting [4]) was over 2500 nM each time.
As to `Cc1cnc(NC2CCOCC2)nc1-n1cnc(C(=O)N[C@@H](CO)c2cccc(Cl)c2)c1` [Example 217, (R)-N-(1-(3-chlorophenyl)-2-hydroxyethyl)-1-(5-methyl-2-((tetrahydro-2H-pyran-4-yl)amino)pyrimidin-4-yl)-1H-imidazole-4-carboxamide], the IC50 in assay [1] (setting [3]) and in assay [2] (setting [4]) was over 2500 nM each time.
For the compound `Cc1cnc(Nc2ccc3c(c2)OCO3)nc1-n1cc(NC(=O)NC(CO)c2cccc(Cl)c2)cn1` (centres unmarked) [Example 37, 1-(1-(2-(benzo[d][1,3]dioxol-5-ylamino)-5-methyl-pyrimidin-4-yl)-1H-pyrazol-4-yl)-3-(1-(3-chlorophenyl)-2-hydroxy-ethyl)urea], the IC50 was over 2500 nM in assay [1] (setting [3]) and 500 to 2500 nM in assay [2] (setting [4]).
As to `Cc1cnc(NC2CC2)nc1-n1cc(C(=O)NC(CO)c2cccc(Cl)c2)cn1` (centres unmarked) [Example 40, N-(1-(3-chlorophenyl)-2-hydroxy-ethyl)-1-(2-(cyclopropyl-amino)-5-methyl-pyrimidin-4-yl)-1H-pyrazole-4-carboxamide], the IC50 in assay [1] (setting [3]) and in assay [2] (setting [4]) was over 2500 nM in each case.
On to `Cc1cnc(Nc2ccc(F)cc2Cl)nc1-n1ccc(C(=O)N[C@H](CO)c2cccc(Cl)c2)c1` [Example 57, (S)-1-(2-((2-chloro-4-fluorophenyl)-amino)-5-methyl-pyrimidin-4-yl)-N-(1-(3-chlorophenyl)-2-hydroxy-ethyl)-1H-pyrrole-3-carboxamide], for which the IC50 in assay [1] (HT29 cells) and in assay [2] (HCT116 cells) was over 2500 nM throughout.
For `Cc1cnc(Nc2cc3c(cc2Cl)OCO3)nc1-n1ccc(C(=O)NC(CO)c2cccc(Cl)c2)c1` (centres unmarked) [Example 101, 1-(2-((6-chloro-benzo[d][1,3]dioxol-5-yl)amino)-5-methyl-pyrimidin-4-yl)-N-(1-(3-chlorophenyl)-2-hydroxy-ethyl)-1H-pyrrole-3-carboxamide], the IC50 was 500 to 2500 nM in assay [1] (setting [3]) and over 2500 nM in assay [2] (setting [4]).
For `Cc1cnc(Nc2ccc(N3CCNCC3)cc2)cc1-n1ccc(C(=O)NC(CO)c2ccccc2)c1` (centres unmarked) [Example 83, N-(2-hydroxy-1-phenylethyl)-1-(5-methyl-2-((4-(piperazin-1-yl)-phenyl)amino)-pyridin-4-yl)-1H-pyrrole-3-carboxamide], in that order: over 2500 nM and over 2500 nM.
In the case of `CN1CCN(c2ccc(Nc3nccc(-n4cc(NC(=O)N[C@H](CO)c5cccc(Cl)c5)cn4)n3)cc2)CC1` [Example 22, (S)-1-(1-(3-chlorophenyl)-2-hydroxy-ethyl)-3-(1-(2-((4-(4-methyl-piperazin-1-yl)-phenyl)amino)pyrimidin-4-yl)-1H-pyrazol-4-yl)urea], the concentration for half-maximal inhibition (IC50) in assay [1] (setting [3]) and in assay [2] (setting [4]) was over 2500 nM in each case.
In the case of `Cc1cnc(Nc2ccc3c(c2)OC(F)(F)O3)cc1-n1cnc(C(=O)NC(CN)Cc2ccccc2)c1` (centres unmarked) [Example 99, N-(1-amino-3-phenyl-propan-2-yl)-1-(2-((2,2-difluoro-benzo[d][1,3]dioxol-5-yl)amino)-5-methyl-pyridin-4-yl)-1H-imidazole-4-carboxamide], the IC50 in assay [1] (setting [3]) and in assay [2] (setting [4]) was over 2500 nM each time.
In the case of `Cc1cnc(NC2CC2)nc1-n1cc(NC(=O)N[C@H](CO)c2cccc(Cl)c2)cn1` [Example 3, (S)-1-(1-(3-chlorophenyl)-2-hydroxyethyl)-3-(1-(2-(cyclo-propyl-amino)-5-methyl-pyrimidin-4-yl)-1H-pyrazol-4-yl)urea], the 50% inhibitory concentration (IC50) in assay [1] (setting [3]) and in assay [2] (setting [4]) was over 2500 nM in each case.
On to `Cc1cnc(Nc2ccc3c(c2)OC(F)(F)O3)cc1-n1cnc(C(=O)NC(CO)c2cccc(Cl)c2)c1` (centres unmarked) [Example 90, N-(1-(3-chlorophenyl)-2-hydroxy-ethyl)-1-(2-((2,2-difluoro-benzo[d][1,3]dioxol-5-yl)amino)-5-methyl-pyridin-4-yl)-1H-imidazole-4-carboxamide], for which the 50% inhibitory concentration (IC50) in assay [1] (setting [3]) and in assay [2] (setting [4]) was over 2500 nM each time.
Consider `Cc1cnc(Nc2ccc(F)cc2Cl)nc1-n1cc(C(=O)NC(CN)c2ccccc2)cn1` (centres unmarked) [Example 54, N-(2-amino-1-phenylethyl)-1-(2-((2-chloro-4-fluoro-phenyl)amino)-5-methyl-pyrimidin-4-yl)-1H-pyrazole-4-carboxamide], for which the IC50 in assay [1] (setting [3]) and in assay [2] (setting [4]) was over 2500 nM each time.
In the case of `Cc1cnc(Nc2ccc3occc3c2)cc1-n1ccc(C(=O)NC(CO)c2ccccc2)c1` (centres unmarked) [Example 79, 1-(2-(benzo-furan-5-ylamino)-5-methyl-pyridin-4-yl)-N-(2-hydroxy-1-phenylethyl)-1H-pyrrole-3-carboxamide], the IC50 in assay [1] (setting [3]) and in assay [2] (setting [4]) was over 2500 nM each time.
With `Cc1cnc(Nc2ccc3c(c2)OCO3)nc1-n1cc(NC(=O)N[C@H](CO)c2cccc(Cl)c2)cn1` [Example 44, (S)-1-(1-(2-(benzo[d][1,3]dioxol-5-ylamino)-5-methyl-pyrimidin-4-yl)-1H-pyrazol-4-yl)-3-(1-(3-chloro-phenyl)-2-hydroxy-ethyl)urea], the IC50 in assay [1] (setting [3]) and in assay [2] (setting [4]) was over 2500 nM throughout.
Turning to `Cc1cnc(Nc2ccc3c(c2)OCO3)nc1-n1ccc(C(=O)NC(CO)c2cccnc2)c1` (centres unmarked) [Example 103, 1-(2-(benzo[d][1,3]dioxol-5-ylamino)-5-methyl-pyrimidin-4-yl)-N-(2-hydroxy-1-(pyridin-3-yl)ethyl)-1H-pyrrole-3-carboxamide], the IC50 in assay [1] (setting [3]) and in assay [2] (setting [4]) was over 2500 nM each time.
Take `Cc1cnc(Nc2cccnc2)cc1-n1ccc(C(=O)NC(CO)c2ccccc2)c1` (centres unmarked) [Example 81, N-(2-hydroxy-1-phenylethyl)-1-(5-methyl-2-(pyridin-3-ylamino)pyridin-4-yl)-1H-pyrrole-3-carboxamide]: the IC50 in assay [1] (setting [3]) and in assay [2] (setting [4]) was over 2500 nM throughout.
For the compound `NCC(Cc1ccccc1)NC(=O)c1ccn(-c2ccnc(Nc3ccc(F)cc3)c2)c1` (centres unmarked) [Example 119, N-(1-amino-3-phenyl-propan-2-yl)-1-(2-((4-fluoro-phenyl)amino)pyridin-4-yl)-1H-pyrrole-3-carboxamide], the half-maximal inhibitory concentration (IC50) in assay [1] (setting [3]) and in assay [2] (setting [4]) was over 2500 nM throughout.
Turning to `Cc1cnc(Nc2ccccc2Cl)nc1-n1cc(NC(=O)N[C@H](CO)c2cccc(Cl)c2)cn1` [Cmpd 2, (S)-1-(1-(3-chlorophenyl)-2-hydroxyethyl)-3-(1-(2-((2-chloro-phenyl)amino)-5-methylpyrimidin-4-yl)-1H-pyrazol-4-yl)urea], the IC50 in assay [1] (setting [3]) and in assay [2] (setting [4]) was over 2500 nM each time.
